From paper PMC9733678, “Combining drug salt formation with amorphous solid dispersions – a double edged sword” (Journal of Controlled Release, 2022)

What was measured:
[1] = Physical stability, open dish 40 °C/75% RH, monitored by PXRD; type: physicochemical; conditions: neat amorphous salt
Method: PXRD patterns of the lumefantrine salts and salt ASDs were collected using an X-ray diffractometer (Rigaku SmartLab, Rigaku Americas, The Woodlands, TX) operating at 40 kV and […] in Bragg–Brentano mode with a Cu-kα radiation source and D/tex ultra detector. Each sample was spread thinly on a glass sample holder. Data was collected from 4 to 40° 2θ using a step size of 0.02° and a scan rate of 4°/min.
To assess the physical stability of the salts and salt ASDs, the samples were stored in open dish accelerated stability conditions of 40 °C/ 75% RH. At pre-determined time intervals, the samples were removed and their PXRD patterns collected.

[2] = Water sorption analysis of amorphous lumefantrine salts (DVS); type: physicochemical; conditions: neat amorphous salt; for weight gain (water sorption): 95% RH
Method: Water sorption profiles of the amorphous lumefantrine salts were measured using a DVS Adventure water vapor sorption analyzer (Surface Measurement Systems, Wembley, UK). Powdered salt (5–10 mg) was dried at 0% RH in the instrument for 120 min. After drying, the RH within the chamber was increased from 5% to 95% at a 5% step interval. The equilibrium criterion was a percent weight change over time (% dm/dt) of <0.002%/min for 10 min. Nitrogen was used as the purging gas.

[3] = parameters: method as in PMID 10468018; conditions: amorphous salt; cited from earlier work
[4] = Thermal analysis (DSC), onset glass transition temperature; type: physicochemical; conditions: for Tg (glass transition temperature) of neat amorphous material: DSC
Method: A Q2000 differential scanning calorimeter (DSC; Q2000, TA Instruments, New Castle, DE) connected to an RCS 90 refrigerated cooling system (TA Instruments, New Castle, DE) was used to analyze the lumefantrine salts and salt ASDs. The thermal properties of lumefantrine free base, lumefantrine free base ASDs, and neat PVPVA were also analyzed. The purging gas used was dry nitrogen (50 mL/min flow rate). Temperature calibration of the DSC was performed using indium and tin, while indium was used for enthalpy calibration. Each sample (5–10 mg) was carefully weighed and sealed in a Tzero aluminum sample pan (TA Instruments, New Castle, DE). The procedure to obtain the sample Tg is as follows: equilibration at −10 °C, followed by heating with a modulation of ±0.636 °C every 40 s at 3 °C/min to the temperature of interest. The samples were then cooled to −10 °C at 10 °C/min and reheated at 5 °C/min. The first heating cycle was used to remove thermal history associated with the samples, while the second cycle was used to obtain the sample Tg.

[5] = parameters: method as in PMID 32134677; conditions: PVPVA ASD; cited from earlier work
[6] = parameters: method as in PMID 23763957; conditions: cited from earlier work
[7] = parameters: method as in PMID 24189249; conditions: cited from earlier work

CCCCN(CCCC)CC(O)c1cc(Cl)cc2c1-c1ccc(Cl)cc1C2=Cc1ccc(Cl)cc1.Cl (centres unmarked) [HCl salt, Lumefantrine HCl]
time re-crystallization was resisted [1]: at least 16 weeks | weight gain (water sorption) [2]: < 2%

COc1ccc2c(c1)c(CC(=O)[O-])c(C)n2C(=O)c1ccc(Cl)cc1.[Na+] [Na indomethacin]
Tg higher than indomethacin free acid [3]: ~75 °C

CCCCN(CCCC)CC(O)c1cc(Cl)cc2c1-c1ccc(Cl)cc1/C2=C/c1ccc(Cl)cc1.O=C(O)c1ccccc1 (centres unmarked) [benzoate salt, Lumefantrine benzoate]
storage time at which crystalline peaks were observed [1]: ≤ 4 weeks | elevation in Tg relative to the free base ([4]; neat amorphous salt): ~10 °C | weight gain (water sorption) [2]: < 2%

CCCCN(CCCC)CC(O)c1cc(Cl)cc2c1-c1ccc(Cl)cc1C2=Cc1ccc(Cl)cc1.O=S(=O)(O)c1ccccc1 (centres unmarked) [besylate salt, Lumefantrine besylate]
storage time at which crystalline peaks were observed [1]: ≤ 4 weeks | weight gain (water sorption) [2]: < 2%

CC1(C)[C@@H]2CC[C@@]1(CS(=O)(=O)O)C(=O)C2.CCCCN(CCCC)CC(O)c1cc(Cl)cc2c1-c1ccc(Cl)cc1/C2=C/c1ccc(Cl)cc1 (centres unmarked) [camsylate salt, Lumefantrine camsylate]
storage time at which crystalline peaks were observed [1]: 32 weeks | weight gain (water sorption) [2]: < 2%

COc1ccc2c(c1)c(CC(=O)O)c(C)n2C(=O)c1ccc(Cl)cc1 [indomethacin]
limit of congruency (LoC) [5]: 10%

CCCCN(CCCC)CC(O)c1cc(Cl)cc2c1-c1ccc(Cl)cc1/C2=C/c1ccc(Cl)cc1 (centres unmarked) [lumefantrine, reference compound]
pKa of tertiary amine [6]: 8.73 | Tg (glass transition temperature) of neat amorphous material [4]: 19.7 °C | Tg (glass transition temperature) of neat amorphous material ([4]; listed as free base): 20 °C | log P [7]: 8.34

CCCCN(CCCC)CC(O)c1cc(Cl)cc2c1-c1ccc(Cl)cc1/C2=C/c1ccc(Cl)cc1.CCCCN(CCCC)CC(O)c1cc(Cl)cc2c1-c1ccc(Cl)cc1/C2=C/c1ccc(Cl)cc1.O=S(=O)(O)O (centres unmarked) [sulfate salt, Lumefantrine sulfate]
time re-crystallization was resisted [1]: at least 16 weeks | Tg (glass transition temperature) of neat amorphous material [4]: 101 °C | weight gain (water sorption) [2]: 3.3%

CCCCN(CCCC)CC(O)c1cc(Cl)cc2c1-c1ccc(Cl)cc1C2=Cc1ccc(Cl)cc1.Cc1ccc(S(=O)(=O)O)cc1 (centres unmarked) [tosylate salt, Lumefantrine tosylate]
weight gain (water sorption) [2]: < 2%

Lumefantrine PEG 250 diacid [PEG 250 diacid (1:1) salt]
appearance after exposure to 95% RH [2]: liquified | increase in weight (water sorption) ([2]; 90% RH): 5.1% | weight gain (water sorption) [2]: 6.6%

Lumefantrine PEG 250 diacid [PEG 250 diacid (2:1) salt]
storage time at which crystalline peaks were observed [1]: ≤ 4 weeks
